The first test deals with ACC2 (Homo sapiens, UniProt O00763). Nature of the test: in vitro ACC2 inhibition assay (ADP-Glo). The class given is biochemical. To be noted: 5 nM ACC2, 20 μM ATP, 20 μM acetyl-CoA, 60 min room temperature, luminescence. The protocol:
In Vitro Acetyl-CoA Carboxylase (ACC) Inhibition Assay
An exemplary procedure for the in vitro ACC inhibition assay, which can be used to determine the inhibitory action of compounds of the invention toward either ACCT or ACC2, follows. The ADP-Glo™ Kinase Assay kit from Promega is used. The ADP-Glo™ Kinase Assay is a luminescent ADP detection assay to measure enzymatic activity by quantifying the amount of ADP produced during an enzyme reaction. The assay is performed in two steps; first, after the enzyme reaction, an equal volume of ADP-Glo™ Reagent is added to terminate the reaction and deplete the remaining ATP. Second, the Kinase Detection Reagent is added to simultaneously convert ADP to ATP and allow the newly synthesized ATP to be measured using a luciferase/luciferin reaction. Luminescence can be correlated to ADP concentrations by using an ATP-to-ADP conversion curve. The detailed procedure is as follows. 50 μL of the compound being tested (600 uM in DMSO) is added to a 384-well dilution plate. The compound is diluted 1:3 in succession in DMSO for each row for 11 wells. […] is added to 384-well white Optiplate assay plate. 0.5 μL diluted compound solution in each column from step 2 is added to the assay plate, each row containing 2 replicates. For the last 2 rows, add 0.5 μL negative control (DMSO) in one row and 0.5 μL positive control (compound I-97) in the other. The plates are incubated at room temperature for 15 minutes. 5 μL substrate working solution is added to each well to initiate reaction. Final ACC2 reaction concentrations consist of: 5 nM ACC2, 20 μM ATP, 20 μM acetyl-CoA, 12 mM NaHCO3, 0.01% Brij35, 2 mM DTT, 5% DMSO, test compound concentrations: 30 μM, 10 μM, 3.33 μM, 1.11 μM, 0.37 μM, 0.123 μM, 0.0411 μM, 0.0137 μM, 0.00457 μM, 0.00152 μM, and 0.00051 μM. Plates are incubated at room temperature for 60 minutes. 10 μL ADP glo reagent is added. Plates are incubated at room temperature for 40 minutes. 20 μL kinase detection reagent is added. Plates are incubated at room temperature for 40 minutes, then read on a Perkin Elmer EnVision 2104 plate reader for luminescence as Relative Light Units (RLU).
Data for each concentration, as well as the positive and negative controls are averaged, and the standard deviation calculated. Percent inhibition is calculated by the formula: 100×(average negative control−compound)/(average negative control−average positive control). The IC50 for each compound is calculated by fitting the data with a non-linear regression equation: Y=Bottom+(Top-Bottom)/(1+10^((Log IC50−X)*HillSlope)), where X is the log of compound concentration and Y is percent inhibition.
The compound numbers correspond to the compound numbers in Table 1. Compounds having an activity designated as “AAA” provided an IC50≦0.1 μM; compounds having an activity designated as “AA” provided an IC50≦1 μM; compounds having an activity designated as “A” provided an IC50≦5 μM; compounds having an activity designated as “B” provided an IC50 of 5-20 μM; compounds having an activity designated as “C” provided an IC50 of 20-50 μM; and compounds having an activity designated as “D” provided an IC50≧50 μM
Background: ADP-Glo turns the ADP formed in a reaction into a luminescent signal.
Chain of ACC2 (Homo sapiens, UniProt O00763) (O00763 whole entry, species assumed): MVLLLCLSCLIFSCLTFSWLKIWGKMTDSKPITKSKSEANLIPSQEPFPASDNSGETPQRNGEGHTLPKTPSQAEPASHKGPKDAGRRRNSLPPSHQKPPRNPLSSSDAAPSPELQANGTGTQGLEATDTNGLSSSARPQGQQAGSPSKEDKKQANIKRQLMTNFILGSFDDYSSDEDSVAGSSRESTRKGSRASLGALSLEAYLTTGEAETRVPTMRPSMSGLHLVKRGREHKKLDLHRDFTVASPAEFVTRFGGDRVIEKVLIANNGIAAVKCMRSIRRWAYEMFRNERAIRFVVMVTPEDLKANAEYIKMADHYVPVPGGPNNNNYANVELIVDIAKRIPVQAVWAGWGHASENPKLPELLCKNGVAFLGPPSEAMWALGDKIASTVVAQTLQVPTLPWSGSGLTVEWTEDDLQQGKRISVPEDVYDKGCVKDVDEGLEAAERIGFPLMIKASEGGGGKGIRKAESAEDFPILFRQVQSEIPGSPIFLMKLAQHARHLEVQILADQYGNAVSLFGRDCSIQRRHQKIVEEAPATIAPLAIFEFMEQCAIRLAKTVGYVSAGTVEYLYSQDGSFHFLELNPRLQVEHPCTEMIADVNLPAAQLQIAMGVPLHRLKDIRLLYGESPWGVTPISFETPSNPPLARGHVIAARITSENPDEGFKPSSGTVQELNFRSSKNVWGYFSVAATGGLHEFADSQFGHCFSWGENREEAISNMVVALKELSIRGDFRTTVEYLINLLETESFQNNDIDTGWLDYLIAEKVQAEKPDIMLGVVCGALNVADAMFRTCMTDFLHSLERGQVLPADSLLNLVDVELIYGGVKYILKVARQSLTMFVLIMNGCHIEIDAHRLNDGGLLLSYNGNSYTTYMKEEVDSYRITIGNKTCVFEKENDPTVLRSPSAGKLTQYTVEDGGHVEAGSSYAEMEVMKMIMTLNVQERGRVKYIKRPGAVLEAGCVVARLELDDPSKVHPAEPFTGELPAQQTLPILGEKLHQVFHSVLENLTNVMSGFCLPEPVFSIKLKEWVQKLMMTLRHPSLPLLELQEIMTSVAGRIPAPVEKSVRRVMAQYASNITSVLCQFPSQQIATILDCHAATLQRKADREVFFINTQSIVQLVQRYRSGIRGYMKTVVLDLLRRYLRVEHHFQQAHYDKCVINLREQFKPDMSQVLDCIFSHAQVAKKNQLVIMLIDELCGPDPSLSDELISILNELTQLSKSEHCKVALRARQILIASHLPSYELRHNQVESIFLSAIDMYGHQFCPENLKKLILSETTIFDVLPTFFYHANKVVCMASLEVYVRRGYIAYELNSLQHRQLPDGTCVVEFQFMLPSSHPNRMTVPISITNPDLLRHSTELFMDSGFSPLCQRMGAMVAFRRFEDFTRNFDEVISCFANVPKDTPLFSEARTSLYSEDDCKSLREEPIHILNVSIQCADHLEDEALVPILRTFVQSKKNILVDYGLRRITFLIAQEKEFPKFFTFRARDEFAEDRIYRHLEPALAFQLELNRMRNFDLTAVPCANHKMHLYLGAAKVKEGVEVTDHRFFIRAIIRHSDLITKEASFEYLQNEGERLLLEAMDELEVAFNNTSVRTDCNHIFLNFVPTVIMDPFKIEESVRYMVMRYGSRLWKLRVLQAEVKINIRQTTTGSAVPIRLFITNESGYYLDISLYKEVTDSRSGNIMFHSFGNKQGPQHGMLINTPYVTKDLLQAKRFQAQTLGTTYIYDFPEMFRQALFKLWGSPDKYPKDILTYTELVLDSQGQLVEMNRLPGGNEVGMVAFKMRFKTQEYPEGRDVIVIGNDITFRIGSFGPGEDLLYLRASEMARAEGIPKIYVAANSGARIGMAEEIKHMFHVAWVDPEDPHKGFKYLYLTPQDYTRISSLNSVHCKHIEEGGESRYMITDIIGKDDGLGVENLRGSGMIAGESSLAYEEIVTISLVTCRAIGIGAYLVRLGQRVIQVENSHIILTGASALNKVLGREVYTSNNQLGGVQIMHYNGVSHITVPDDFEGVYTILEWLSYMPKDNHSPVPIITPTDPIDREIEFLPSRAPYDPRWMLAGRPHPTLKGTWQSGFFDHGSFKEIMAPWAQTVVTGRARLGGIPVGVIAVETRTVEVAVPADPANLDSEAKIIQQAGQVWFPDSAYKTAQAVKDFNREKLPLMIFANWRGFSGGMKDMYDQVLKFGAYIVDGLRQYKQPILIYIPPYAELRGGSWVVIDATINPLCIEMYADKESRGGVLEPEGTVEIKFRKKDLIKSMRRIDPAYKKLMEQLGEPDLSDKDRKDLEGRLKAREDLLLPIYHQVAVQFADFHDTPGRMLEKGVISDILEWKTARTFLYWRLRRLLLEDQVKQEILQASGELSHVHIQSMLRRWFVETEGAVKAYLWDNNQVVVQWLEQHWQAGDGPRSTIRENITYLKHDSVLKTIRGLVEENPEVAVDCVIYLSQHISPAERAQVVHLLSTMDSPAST
For the compound `COc1ccccc1CCc1nn(CC(=O)O)c(=O)c2c(C)c(-c3ncco3)sc12` [Compound I-49, 2-(7-(2-methoxyphenethyl)-3-methyl-2-(oxazol-2-yl)-4-oxothieno[2,3-d]pyridazin-5(4H)-yl)acetic acid], the IC50 is ≥ 50 µM.

`COc1ccc(F)cc1[C@H](CN1C(=O)N(C(C)(C)C(=O)O)S(=O)(=O)c2c1sc(-c1ncco1)c2C)OC1CCOCC1` [Compound I-42, (R)-2-(4-(2-(5-fluoro-2-methoxyphenyl)-2-((tetrahydro-2H-pyran-4-yl)oxy)ethyl)-7-methyl-6-(oxazol-2-yl)-1,1-dioxido-3-oxo-3,4-dihydro-2H-thieno[2,3-e][1,2,4]thiadiazin-2-yl)-2-methylpropanoic acid]: the IC50 was ≤ 5 µM. Still for that read-out and setting: in the case of `COc1ccccc1[C@H](CN1C(=O)N(C(C)(C)C(=O)O)S(=O)(=O)c2c1sc(-c1ncco1)c2C)O[C@H]1CC[C@@H](O)CC1` [Compound I-47, 2-(4-((R)-2-(((1s,4S)-4-hydroxycyclohexyl)oxy)-2-(2-methoxyphenyl)ethyl)-7-methyl-6-(oxazol-2-yl)-1,1-dioxido-3-oxo-3,4-dihydro-2H-thieno[2,3-e][1,2,4]thiadiazin-2-yl)-2-methylpropanoic acid] it was 5 to 20 µM.

With “2-(4-((R)-2-(5-fluoro-2-methoxyphenyl)-2-((tetrahydro-2H-pyran-4-yl)oxy)ethyl)-7-methyl-6-(oxazol-2-yl)-1,1-dioxido-3-oxo-3,4,4a,7a-tetra-hydro-2H-thieno[2,3-e][1,2,4]thiadiazin-2-yl)acetic acid [Compound I-41]”, the IC50 is ≤ 0.1 µM. On the same count and under the same terms, the result for `COc1ccccc1CCN1c2sc(-c3ncco3)c(C)c2C(=O)N(CC(N)=O)S1(=O)=O` [Compound I-44, 2-(1-(2-methoxyphenethyl)-5-methyl-6-(oxazol-2-yl)-2,2-dioxido-4-oxo-1H-thieno[2,3-c][1,2,6]thiadiazin-3(4H)-yl)acetamide] reads 5 to 20 µM; that for `COc1ccc(F)cc1[C@H](CN1C(=O)N(C(C)(C)C(=O)O)S(=O)(=O)c2c1sc(-c1ncco1)c2C)OC(C)C` [Compound I-45, (R)-2-(4-(2-(5-fluoro-2-methoxyphenyl)-2-isopropoxyethyl)-7-methyl-6-(oxazol-2-yl)-1,1-dioxido-3-oxo-3,4-dihydro-2H-thieno[2,3-e][1,2,4]thiadiazin-2-yl)-2-methylpropanoic acid], 5 to 20 µM. Compound `COc1ccccc1[C@H](CN1C(=O)N(C(C)(C)C(=O)O)S(=O)(=O)c2c1sc(-c1ncco1)c2C)OC1CCOCC1` [Compound I-46, (R)-2-(4-(2-(2-methoxyphenyl)-2-((tetrahydro-2H-pyran-4-yl)oxy)ethyl)-7-methyl-6-(oxazol-2-yl)-1,1-dioxido-3-oxo-3,4-dihydro-2H-thieno[2,3-e][1,2,4]thiadiazin-2-yl)-2-methylpropanoic acid] came in with an IC50 of 5 to 20 µM. The same measure, in the same setting: the result for `COc1ccccc1CCN1c2sc(-c3ncco3)c(C)c2C(=O)N(CC(=O)O)S1(=O)=O` [Compound I-43, 2-(1-(2-methoxyphenethyl)-5-methyl-6-(oxazol-2-yl)-2,2-dioxido-4-oxo-1H-thieno[2,3-c][1,2,6]thiadiazin-3(4H)-yl)acetic acid] reads 5 to 20 µM; that for `CCOC(=O)c1sc2c(c1C)S(=O)(=O)N(C(C)(C)C(=O)OCc1ccccc1)C(=O)N2C[C@H](OC(C)C)c1cc(F)ccc1OC` [Compound I-48, (R)-ethyl 2-(1-(benzyloxy)-2-methyl-1-oxopropan-2-yl)-4-(2-(5-fluoro-2-methoxyphenyl)-2-isopropoxyethyl)-7-methyl-3-oxo-3,4-dihydro-2H-thieno[2,3-e][1,2,4]thiadiazine-6-carboxylate 1,1-dioxide], 5 to 20 µM.

A further test concerns ACC1.
Test: not given
To be noted: ACC1 isolated from rat, mouse, monkey and human; cited from earlier work.
As for `O=C(c1c2ccccc2cc2ccccc12)N1CCC(N2CCC[C@@H](C(=O)N3CCOCC3)C2)CC1` [CP-640186], the IC50 is ~0.06 µM.

A further test concerns ACC2.
Test: not given
To be noted: ACC2 isolated from rat, mouse, monkey and human; cited from earlier work.
As for `O=C(c1c2ccccc2cc2ccccc12)N1CCC(N2CCC[C@@H](C(=O)N3CCOCC3)C2)CC1` [CP-640186], the IC50 is ~0.06 µM.

One may read the IC50 as the point on the concentration scale where inhibition reaches its midpoint.

The values are drawn from patent US9765089B2, “ACC inhibitors and uses thereof” (Gilead Apollo, LLC, priority 2013, dated 2017).
